Bridges are numbered along the chain shown (N, C = ends). Where no end group is shown, it is not given here.

For this assay, the system named is C57bl/6 mice. In kind it is in vivo, mouse. To be noted: n=3; for CNS accumulation of NA-HRP (result in words): biotin-peptide:NA-HRP complex, IP, 24 hours post-injection.

In the case of “SACPLSKGKLCGGG (disulfide 3-11 (inferred)) [TACL08]”, where the note is “peptide-neutravidin-HRP, 10 μg per mouse IP, 24 hours”, the “NA-delivery to the forebrain (result in words)” value is “increased NA-delivery to the forebrain when compared against controls”.

In the case of “SACHQSQSRMCGGG (disulfide 3-11 (inferred)) [TACL10]”, the “CNS accumulation of NA-HRP (result in words)” value is listed as “trended toward significant CNS accumulation”. On the same count and under the same terms, then “SACSQKNFTHCGGG (disulfide 3-11 (inferred)) [TACL06]”, with “trended toward significant CNS accumulation”.

The values are drawn from article PMC7651855 (ACS nano, 2019).
